In article PMC5688156, “The natural product carolacton inhibits folate-dependent C1 metabolism by targeting FolD/MTHFD” (Nature Communications, 2017):

Key:
[1] = target: T1, spFolD (Streptococcus pneumoniae serotype 4, UniProt Q97RI9); assay: spFolD cyclohydrolase (CYH) enzyme assay; format: biochemical, S. pneumoniae
T1 construct: His-tag (TEV-cleavable, vector pHis-TEV); made in house; host or cells: E. coli BL21 (DE3)
Procedure: (6R,S)-5,10-Methylene-5,6,7,8-tetrahydrofolic acid ((6R,S)-5,10-CH2-THF) calcium salt and (6R,S)-5,10-Methenyl-5,6,7,8-tetrahydrofolic acid ((6R,S)-5,10-CH=THF) chloride were purchased from Schircks Laboratories (Bauma, Switzerland) and used as substrates for FolD dehydrogenase and cyclohydrolase enzyme assays, respectively. Only the R-isomer, which accounts for 50% of (6R,S)-5,10-CH2-THF and (6R,S)-5,10-CH=THF, respectively, is used by the enzyme. (6R,S)-5,10-CH2-THF was dissolved in N2-spargeled basic buffer (50 mM Tris-HCl (pH 8.0), 100 mM β-mercaptoethanol) as described by Varshney et al.[25]. (6R,S)-5,10-CH=THF was dissolved in DMSO as a 100 mM stock solution.
Because FolD is a bifunctional enzyme, dehydrogenase and cyclohydrolase activities were determined for FolD enzyme kinetics, respectively. The dehydrogenase activity of FolD was assayed for its substrate 5,10-CH2-THF and cofactor NADP^+ (in the case of MTHFD2, NAD^+ was used as the cofactor) based on monitoring the formation of 5,10-CH=THF, while the cyclohydrolase activity of FolD was determined for its substrate 5,10-CH=THF by monitoring the hydrolysis of […]. The enzyme kinetics for the dehydrogenase activity of all FolDs except hsMTHFD1_DC were determined at 30 °C in 50 mM Tris-HCl (pH 7.5), 30 mM β-mercaptoethanol. The hsMTHFD1_DC dehydrogenase activity was measured in 25 mM MOPS (pH 7.3), 30 mM β-mercaptoethanol at 30 °C. […] To monitor the formation of 5,10-CH=THF, the absorbance of the reaction mixture was monitored at 350 nm in micro UV cuvettes (BRAND, Essex, Connecticut, USA). The concentration of 5,10-CH=THF produced in the reaction was determined using an extinction co-efficient of 0.0249 μM^−1 cm^−1. […] The consumption of 5,10-CH=THF was measured by recording the absorbance of the reactions at 355 nm using the TECAN Infinite 200 PRO equipped with a monochromator. […] The inhibition constants (K i) of carolacton on FolD were determined by measuring the apparent K m when adding certain amounts of carolacton to the enzyme reactions. […]

[2] = tested on: E. coli DSM-1116 (WT); assay: MIC determination on E. coli DSM-1116 (WT); format: cell-based; settings: Escherichia coli
Procedure: The determination of MICs was performed as described elsewhere. In brief, E. coli strains were treated with carolacton in serial dilution in either the presence or absence of sub-inhibitory concentrations of polymyxin B nonapeptide (PMBN; 3 µg/mL) and/or phenylalanine–arginine β-napthylamide (PAβN; 20 µg/mL) for 16 h at 37 °C in Mueller–Hinton broth. The MICs were assessed by visual inspection of the plates.

[3] = tested on: U-937; assay: Cytotoxicity screening, U-937 (alamar blue); format: cell-based, human; settings: for EC50: 5 d, alamar blue
Procedure: Half maximal effective concentrations (EC50) on human cancer cell lines were determined as described elsewhere. Human cancer cell lines were maintained as recommended by the depositor (German Collection of Microorganisms and Cell Cultures, DSMZ) and were treated for 5 d with carolacton in serial dilution. The viability of adherent cell types, HCT-116 (ACC 581), KB-3.1 (ACC-158) and KB-V.1 (ACC-149) was assessed by the addition of MTT tetrazolium salt and absorbance measurement at 570 nm. Histiocytic lymphoma U-937 cells (ACC-5) were maintained in RPMI 1640 medium and transferred into folate-free medium prior to the assay. Cell viability was determined by measuring alamar blue fluorescence emission at 590 nm. The values were referenced and EC50 values were determined by sigmoidal curve fitting. The cell lines KB-3.1 and KB-V.1 are originally derived from HeLa, whereas the latter is an MDR subclone of KB-3.1. They were used to directly compare the activity of carolacton on an mdr1 overexpressing and a sensitive cell line.

T1 sequence (Q97RI9 whole entry): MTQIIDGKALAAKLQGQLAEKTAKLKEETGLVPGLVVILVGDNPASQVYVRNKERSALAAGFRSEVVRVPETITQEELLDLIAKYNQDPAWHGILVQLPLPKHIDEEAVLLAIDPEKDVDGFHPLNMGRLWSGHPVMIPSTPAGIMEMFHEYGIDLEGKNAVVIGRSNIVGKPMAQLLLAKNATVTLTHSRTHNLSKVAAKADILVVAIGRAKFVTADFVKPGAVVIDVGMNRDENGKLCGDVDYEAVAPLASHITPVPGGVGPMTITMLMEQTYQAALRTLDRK

SMILES: CO[C@H](CC(=O)O)[C@@H](C)C(=O)[C@H](C)/C=C(\C)[C@H]1OC(=O)[C@H](O)[C@H](O)/C=C/[C@H](C)CCC[C@@H]1C [carolacton]
- IC50 ([1]; 5 nM enzyme, read-out: IC50, carolacton inhibition on CYH activity): 38.1 nM
- IC80 ([1]; 5 nM enzyme, read-out: IC80, carolacton inhibition on CYH activity): 101 nM
- Ki ([1]; vs 5,10-CH=THF, read-out: Ki (5,10-CH=THF), carolacton inhibition on CYH activity): 38.1 nM
- MIC ([2]; DSM1116, + 3 µg/mL PMBN + 20 µg/mL PAβN, no full inhibition): 2 µg/mL
- MIC ([2]; DSM1116, + 3 µg/mL PMBN, cation-adjusted Mueller–Hinton broth): ≥ 64 µg/mL
- MIC ([2]; DSM1116, + 20 µg/mL PAβN (efflux inhibitor), no full inhibition): 2 µg/mL
- MIC ([2]; DSM1116, no additive, cation-adjusted Mueller–Hinton broth): > 64 µg/mL
- EC50 ([3]; Homo sapiens, U-937, 120 h, folate-depleted medium): 42 µM
- EC50 ([3]; Homo sapiens, U-937, 120 h, normal culture medium (RPMI 1640)): > 100 µM
- Maximum inhibition ([3]; folate-depleted medium): 65–75%
- EC50 ([3]; folate-depleted medium): 41.7 ± 15.2 µM
